Source: patent US20230285514A1, “STAPLED LACTAM CO-AGONISTS OF THE GLUCAGON AND GLP-1 RECEPTORS” (Merck Sharp & Dohme LLC, priority 2019, published 2023)
*1 amine or outer side, *2 acyl side, *3 side chain or, on linkers, in order; H or OH if unused. Where a SMILES comes first, the peptide text is derived from it. Bridges are numbered along the chain shown (N, C = ends). Side-chain parts run from the residue outwards. [ ]: non-standard residue; d: D form. The star is where a group is joined. γGlu = O=C(O)[C@H](CCC(=O)[*:2])N[*:1]; Palmitoyl = CCCCCCCCCCCCCCCC(=O)*; Nle = CCCC[C@H](N)C(=O)O; Aib = CC(C)(N)C(=O)O

Experiments:
human GCGR = target: T1, human GCGR (Homo sapiens, UniProt P47871); assay: cAMP activity assay, cells expressing human GCGR; type: cell-based; settings: for hGCGR/hGLPIR (hTone): ratio of human GCGR EC50 to human GLP1R EC50
T1 construct: expressed in transfected cells
Procedure: (§1) Activity of the peptides at the Glucagon receptor (GCGR) and GLP-1 receptor (GLP1R) was measured in a cAMP activity assay. Peptides were dissolved in 100% DMSO and serially diluted to generate 10 point titrations. The peptide solutions were then transferred into 384-well assay plates (150 nL/well). Assay ready frozen cells expressing human GLP1R or human GCGR were suspended in growth media consisting of DMEM medium (GIBCO), 10% FBS (GIBCO), 1×NEAA(GIBCO), 1×P/S (GIBCO), 10 ug/ml Blasticidin (GIBCO) and 200 μg/mL Hygromycin (GIBCO). […] The cell suspensions (15 μL) were then added to the assay plates containing the peptide solutions (30,000 cells/well for human GCGR; 10,000 cells/well for human GLP1R). […] Production of cAMP was determined using […] kits (DiscoverX) following manufacturer protocol. The plates were incubated for overnight at room temperature in the dark. Luminescence was measured using an EnVision Multilabel plate reader (Perkin Elmer). Native GLP-1 and Glucagon (Bachem) are used as control peptides.

human GLP1R = target: T2, human GLP1R (Homo sapiens, UniProt P43220); assay: cAMP activity assay, cells expressing human GLP1R; type: cell-based; settings: cAMP production, 1 hour, table does not say whether with or without 20% human serum, read-out: GLPIR EC50 human
T2 construct: expressed in transfected cells
Procedure: as §1

T1 sequence (P47871 26-477): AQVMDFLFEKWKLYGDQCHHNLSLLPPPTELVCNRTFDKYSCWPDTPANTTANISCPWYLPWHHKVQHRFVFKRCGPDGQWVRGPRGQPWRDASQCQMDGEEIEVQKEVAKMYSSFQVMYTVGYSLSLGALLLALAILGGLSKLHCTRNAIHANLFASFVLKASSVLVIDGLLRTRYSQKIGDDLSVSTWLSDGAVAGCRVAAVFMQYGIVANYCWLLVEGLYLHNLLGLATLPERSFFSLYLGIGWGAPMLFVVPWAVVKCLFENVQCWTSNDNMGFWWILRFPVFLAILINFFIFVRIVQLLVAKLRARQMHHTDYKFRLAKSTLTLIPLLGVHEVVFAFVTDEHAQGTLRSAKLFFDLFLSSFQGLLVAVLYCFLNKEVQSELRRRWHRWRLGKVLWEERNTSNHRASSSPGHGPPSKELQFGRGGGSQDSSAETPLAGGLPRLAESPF
T2 sequence (P43220 24-463): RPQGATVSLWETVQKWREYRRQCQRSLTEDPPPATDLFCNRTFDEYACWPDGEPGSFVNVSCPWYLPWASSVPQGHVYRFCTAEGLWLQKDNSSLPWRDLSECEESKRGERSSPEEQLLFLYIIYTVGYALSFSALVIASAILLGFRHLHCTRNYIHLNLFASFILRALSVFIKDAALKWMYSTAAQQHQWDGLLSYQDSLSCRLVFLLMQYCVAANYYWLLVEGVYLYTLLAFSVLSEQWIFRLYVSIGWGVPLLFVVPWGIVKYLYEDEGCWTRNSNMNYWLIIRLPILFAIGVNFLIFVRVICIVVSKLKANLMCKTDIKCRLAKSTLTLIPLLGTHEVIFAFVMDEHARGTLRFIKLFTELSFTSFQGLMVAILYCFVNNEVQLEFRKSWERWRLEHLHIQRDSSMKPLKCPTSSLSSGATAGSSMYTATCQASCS

Structure (SMILES)	hGCGR/hGLPIR (hTone) (human GCGR)	EC50 (human GLP1R) [nM]	EC50 (human GCGR; cAMP production, cells expressing human GCGR, 1 hour, table does not say whether with or without 20% human serum) [nM]
CCCCCCCCCCCCCCCC(=O)N[C@@H](CCC(=O)N[C@@H](CCC(=O)NCCCC[C@H](NC(=O)[C@H](CC(=O)O)NC(=O)[C@H](CO)NC(=O)[C@@H](NC(=O)[C@H](Cc1ccccc1)NC(=O)[C@@H](NC(=O)CNC(=O)[C@H](CCC(N)=O)NC(=O)[C@@H](CO)NC(=O)[C@@H](N)Cc1c[nH]cn1)[C@@H](C)O)[C@@H](C)O)C(=O)N[C@@H](CO)C(=O)N[C@@H](CCCCN)C(=O)N[C@@H](Cc1ccc(O)cc1)C(=O)N[C@@H](CC(C)C)C(=O)N[C@@H](CC(=O)O)C(=O)N[C@@H](CCC(=O)O)C(=O)N[C@@H](CCCNC(=N)N)C(=O)N[C@@H](C)C(=O)N[C@@H](C)C(=O)N[C@H]1CCC(=O)NCCCC[C@@H](C(=O)N[C@@H](Cc2c[nH]c3ccccc23)C(=O)N[C@@H](CC(C)C)C(=O)N[C@@H](CC(C)C)C(=O)N[C@@H](CC(=O)O)C(=O)N[C@H](C(N)=O)[C@@H](C)O)NC(=O)[C@H](C(C)C)NC(=O)[C@H](Cc2ccccc2)NC(=O)[C@H](CC(=O)O)NC1=O)C(=O)O)C(=O)O [SEQ ID NO: 7] (H-H[dS]QGTFTSDK([γGlu-γGlu-Palmitoyl])SKYLDERAAEDFVKWLLDT-NH2; lactam 20-24; N-terminus assumed)	1.05	–	–
CCCCCCCCCCCCCCCC(=O)N[C@@H](CCC(=O)N[C@@H](CCC(=O)NCCCC[C@H](NC(=O)[C@H](CC(=O)O)NC(=O)[C@H](CO)NC(=O)[C@@H](NC(=O)[C@H](Cc1ccccc1)NC(=O)[C@@H](NC(=O)CNC(=O)[C@H](CCC(N)=O)NC(=O)C(C)(C)NC(=O)[C@@H](N)Cc1c[nH]cn1)[C@@H](C)O)[C@@H](C)O)C(=O)N[C@@H](CO)C(=O)N[C@@H](CCCCN)C(=O)N[C@@H](Cc1ccc(O)cc1)C(=O)N[C@@H](CC(C)C)C(=O)N[C@@H](CC(=O)O)C(=O)NC(C)(C)C(=O)N[C@@H](CCCNC(=N)N)C(=O)N[C@@H](C)C(=O)N[C@@H](C)C(=O)N[C@H]1CCCCNC(=O)CC[C@@H](C(=O)N[C@@H](Cc2c[nH]c3ccccc23)C(=O)N[C@@H](CC(C)C)C(=O)N[C@@H](CCCC)C(=O)N[C@@H](CC(=O)O)C(=O)N[C@H](C(N)=O)[C@@H](C)O)NC(=O)[C@H](C(C)C)NC(=O)[C@H](Cc2ccccc2)NC(=O)[C@H](CC(=O)O)NC1=O)C(=O)O)C(=O)O [SEQ ID NO: 15] (H-H[Aib]QGTFTSDK([γGlu-γGlu-Palmitoyl])SKYLD[Aib]RAAKDFVEWL[Nle]DT-NH2; lactam 20-24; N-terminus assumed)	2.61	–	–
CCCCCCCCCCCCCCCC(=O)N[C@@H](CCC(=O)N[C@@H](CCC(=O)NCCCC[C@H](NC(=O)[C@H](CC(=O)O)NC(=O)[C@H](CO)NC(=O)[C@@H](NC(=O)[C@H](Cc1ccccc1)NC(=O)[C@@H](NC(=O)CNC(=O)[C@H](CCC(N)=O)NC(=O)[C@@H](CO)NC(=O)[C@@H](N)Cc1c[nH]cn1)[C@@H](C)O)[C@@H](C)O)C(=O)N[C@@H](CO)C(=O)N[C@@H](CCCCN)C(=O)N[C@@H](Cc1ccc(O)cc1)C(=O)N[C@@H](CC(C)C)C(=O)N[C@@H](CC(=O)O)C(=O)N[C@@H](C)C(=O)N[C@H]1CCCCNC(=O)CC[C@@H](C(=O)N[C@@H](Cc2ccccc2)C(=O)N[C@H](C(=O)N[C@@H](CCC(N)=O)C(=O)N[C@@H](Cc2c[nH]c3ccccc23)C(=O)N[C@@H](CC(C)C)C(=O)N[C@@H](CC(C)C)C(=O)N[C@@H](CC(=O)O)C(=O)N[C@H](C(N)=O)[C@@H](C)O)C(C)C)NC(=O)[C@H](CCC(N)=O)NC(=O)[C@H](C)NC(=O)[C@H](C)NC1=O)C(=O)O)C(=O)O [SEQ ID NO: 12]	0.8	–	0.06
CCCCCCCCCCCCCCCC(=O)N[C@@H](CCC(=O)N[C@@H](CCC(=O)NCCCC[C@H](NC(=O)[C@H](CC(=O)O)NC(=O)[C@H](CO)NC(=O)[C@@H](NC(=O)[C@H](Cc1ccccc1)NC(=O)[C@@H](NC(=O)CNC(=O)[C@H](CCC(N)=O)NC(=O)C(C)(C)NC(=O)[C@@H](N)Cc1c[nH]cn1)[C@@H](C)O)[C@@H](C)O)C(=O)N[C@@H](CO)C(=O)N[C@@H](CCCCN)C(=O)N[C@@H](Cc1ccc(O)cc1)C(=O)N[C@@H](CC(C)C)C(=O)N[C@@H](CC(=O)O)C(=O)N[C@H]1CCCCNC(=O)CC[C@@H](C(=O)N[C@@H](CC(=O)O)C(=O)N[C@@H](Cc2ccccc2)C(=O)N[C@H](C(=O)N[C@@H](CCC(N)=O)C(=O)N[C@@H](Cc2c[nH]c3ccccc23)C(=O)N[C@@H](CC(C)C)C(=O)N[C@@H](CCCC)C(=O)N[C@@H](CC(=O)O)C(=O)N[C@H](C(N)=O)[C@@H](C)O)C(C)C)NC(=O)[C@H](C)NC(=O)[C@H](C)NC(=O)[C@H](CCCNC(=N)N)NC1=O)C(=O)O)C(=O)O [SEQ ID NO: 14] (H-H[Aib]QGTFTSDK([γGlu-γGlu-Palmitoyl])SKYLDKRAAEDFVQWL[Nle]DT-NH2; lactam 16-20; N-terminus assumed)	1.41	–	–

Now from value to compound:

hGCGR/hGLPIR (hTone) (human GCGR)	EC50 (human GLP1R) [nM]	EC50 (human GCGR; cAMP production, cells expressing human GCGR, 1 hour, table does not say whether with or without 20% human serum) [nM]	Structure (SMILES)
0.84	–	–	CCCCCCCCCCCCCCCC(=O)N[C@@H](CCC(=O)N[C@@H](CCC(=O)NCCCC[C@H](NC(=O)[C@H](CC(=O)O)NC(=O)[C@H](CO)NC(=O)[C@@H](NC(=O)[C@H](Cc1ccccc1)NC(=O)[C@@H](NC(=O)CNC(=O)[C@H](CCC(N)=O)NC(=O)[C@@H](CO)NC(=O)[C@@H](N)Cc1c[nH]cn1)[C@@H](C)O)[C@@H](C)O)C(=O)N[C@@H](CO)C(=O)N[C@@H](CCCCN)C(=O)N[C@@H](Cc1ccc(O)cc1)C(=O)N[C@@H](CC(C)C)C(=O)N[C@@H](CC(=O)O)C(=O)N[C@@H](CCC(=O)O)C(=O)N[C@@H](CCCNC(=N)N)C(=O)N[C@@H](C)C(=O)N[C@@H](C)C(=O)N[C@H]1CCCCNC(=O)CC[C@@H](C(=O)N[C@@H](Cc2c[nH]c3ccccc23)C(=O)N[C@@H](CC(C)C)C(=O)N[C@@H](CC(C)C)C(=O)N[C@@H](CC(=O)O)C(=O)N[C@H](C(N)=O)[C@@H](C)O)NC(=O)[C@H](C(C)C)NC(=O)[C@H](Cc2ccccc2)NC(=O)[C@H](CC(=O)O)NC1=O)C(=O)O)C(=O)O [SEQ ID NO: 8] (H-H[dS]QGTFTSDK([γGlu-γGlu-Palmitoyl])SKYLDERAAKDFVEWLLDT-NH2; lactam 20-24; N-terminus assumed)
0.6	0.17	–	CCCCCCCCCCCCCCCC(=O)N[C@@H](CCC(=O)N[C@@H](CCC(=O)NCCCC[C@H](NC(=O)[C@H](CC(=O)O)NC(=O)[C@H](CO)NC(=O)[C@@H](NC(=O)[C@H](Cc1ccccc1)NC(=O)[C@@H](NC(=O)CNC(=O)[C@H](CCC(N)=O)NC(=O)[C@@H](CO)NC(=O)[C@@H](N)Cc1c[nH]cn1)[C@@H](C)O)[C@@H](C)O)C(=O)N[C@@H](CO)C(=O)N[C@@H](CCCCN)C(=O)N[C@@H](Cc1ccc(O)cc1)C(=O)N[C@@H](CC(C)C)C(=O)N[C@@H](CC(=O)O)C(=O)N[C@@H](C)C(=O)N[C@@H](CCCNC(=N)N)C(=O)N[C@@H](C)C(=O)N[C@@H](C)C(=O)N[C@H]1CCCCNC(=O)CC[C@@H](C(=O)N[C@@H](Cc2c[nH]c3ccccc23)C(=O)N[C@@H](CC(C)C)C(=O)N[C@@H](CC(C)C)C(=O)N[C@@H](CC(=O)O)C(=O)N[C@H](C(N)=O)[C@@H](C)O)NC(=O)[C@H](C(C)C)NC(=O)[C@H](Cc2ccccc2)NC(=O)[C@H](CC(=O)O)NC1=O)C(=O)O)C(=O)O [SEQ ID NO: 11]
1.05	–	–	CCCCCCCCCCCCCCCC(=O)N[C@@H](CCC(=O)N[C@@H](CCC(=O)NCCCC[C@H](NC(=O)[C@H](CC(=O)O)NC(=O)[C@H](CO)NC(=O)[C@@H](NC(=O)[C@H](Cc1ccccc1)NC(=O)[C@@H](NC(=O)CNC(=O)[C@H](CCC(N)=O)NC(=O)C(C)(C)NC(=O)[C@@H](N)Cc1c[nH]cn1)[C@@H](C)O)[C@@H](C)O)C(=O)N[C@@H](CO)C(=O)N[C@@H](CCCCN)C(=O)N[C@@H](Cc1ccc(O)cc1)C(=O)N[C@@H](CC(C)C)C(=O)N[C@@H](CC(=O)O)C(=O)NC(C)(C)C(=O)N[C@@H](CCCNC(=N)N)C(=O)N[C@@H](C)C(=O)N[C@@H](C)C(=O)N[C@@H](CCC(N)=O)C(=O)N[C@@H](CC(=O)O)C(=O)N[C@@H](Cc1ccccc1)C(=O)N[C@H](C(=O)N[C@H]1CCCCNC(=O)CC[C@@H](C(=O)N[C@H](C(N)=O)[C@@H](C)O)NC(=O)[C@H](CCCC)NC(=O)[C@H](CC(C)C)NC(=O)[C@H](Cc2c[nH]c3ccccc23)NC1=O)C(C)C)C(=O)O)C(=O)O [SEQ ID NO: 17] (H-H[Aib]QGTFTSDK([γGlu-γGlu-Palmitoyl])SKYLD[Aib]RAAQDFVKWL[Nle]ET-NH2; lactam 24-28; N-terminus assumed)
0.8	–	–	CCCCCCCCCCCCCCCC(=O)N[C@@H](CCC(=O)N[C@@H](CCC(=O)NCCCC[C@H](NC(=O)[C@H](CC(=O)O)NC(=O)[C@H](CO)NC(=O)[C@@H](NC(=O)[C@H](Cc1ccccc1)NC(=O)[C@@H](NC(=O)CNC(=O)[C@H](CCC(N)=O)NC(=O)[C@@H](CO)NC(=O)[C@@H](N)Cc1c[nH]cn1)[C@@H](C)O)[C@@H](C)O)C(=O)N[C@@H](CO)C(=O)N[C@@H](CCCCN)C(=O)N[C@@H](Cc1ccc(O)cc1)C(=O)N[C@@H](CC(C)C)C(=O)N[C@@H](CC(=O)O)C(=O)N[C@H]1CCCCNC(=O)CC[C@@H](C(=O)N[C@@H](CC(=O)O)C(=O)N[C@@H](Cc2ccccc2)C(=O)N[C@H](C(=O)N[C@@H](CCC(N)=O)C(=O)N[C@@H](Cc2c[nH]c3ccccc23)C(=O)N[C@@H](CC(C)C)C(=O)N[C@@H](CC(C)C)C(=O)N[C@@H](CC(=O)O)C(=O)N[C@H](C(N)=O)[C@@H](C)O)C(C)C)NC(=O)[C@H](C)NC(=O)[C@H](C)NC(=O)[C@H](CCCNC(=N)N)NC1=O)C(=O)O)C(=O)O [SEQ ID NO: 10] (H-H[dS]QGTFTSDK([γGlu-γGlu-Palmitoyl])SKYLDKRAAEDFVQWLLDT-NH2; lactam 16-20; N-terminus assumed)
